Experimental data: patent US20150329519A1, “Formulations Comprising Lipoyl Compounds” (Ischemix, LLC, priority 2014, published 2015)

Experiments:
[1] = Polymer content by HPLC area counts after formulation or salt formation; type: physicochemical
Method: The purity of a lipoyl compound was analyzed by reversed-phase high performance liquid chromatography (HPLC). Mobile phase A was 0.1% triflouroacetic acid (TFA) in H2O and mobile phase B was 0.1% TFA in acetontrile (ACN). A linear gradient of 85:15 to 26:74 over 22 minutes at a flow rate of 1.5 mL/min at 30° C. was used. A lipoyl compound was diluted in ethanol:water (1:1) at a concentration of 1 mg/mL and a 25 μL aliquot was injected onto the HPLC. The sample was detected at 220 nm.
The initial procedure used to formulate (R)Lip-EA-OH consisted of the following sequence: • 1. Neutralize solid (R)Lip-EA-OH by treatment with aqueous sodium bicarbonate or sodium hydroxide; • 2. Dilute with water and saline to near the final volume and concentration; and • 3. Adjust pH and add water to final volume and concentration.
This formulation procedure was used effectively to prepare formulation from multiple lots of (R)Lip-EA-OH that were synthesized at scales below 50 g. As the synthetic process was scaled-up, however, partial polymerization of (R)Lip-EA-OH was observed during formulation. […]
Since (R)Lip-EA-OH was converted to the corresponding bis-sodium salt in situ during formulation, a procedure for synthesizing the bis-sodium salt of (R)Lip-EA-OH was examined. […] The isolated polymer was treated with the reducing agent dithiothreitol (DTT), and the resulting sample was analyzed by HPLC. […]

[2] = tested on: myocardial damage associated with percutaneous coronary intervention; details: human trial, Kates et al. 2014; cited from earlier work
[3] = tested on: patients with stable coronary artery disease undergoing elective stent placement by PCI; assay: Randomized placebo-controlled study of single IV dose in patients undergoing elective stent placement by PCI (CK-MB, Troponin-T); type: in vivo, human; details: for Troponin-T (ng/mL) - Change from baseline (FAP population), Mean / Troponin-T (ng/mL) - Change from baseline (FAP population), Median / Troponin-T (ng/mL), Mean / Troponin-T (ng/mL), Median: Day 1 (24 hours)
Method: A prospective, multi-center, blinded, randomized, placebo-controlled study to evaluate single dose regimens of a 10 mg/mL (R)Lip-EA-OH formulation for IV administration or single dose placebo in patients with stable coronary artery disease undergoing elective stent placement by PCI meeting all the eligibility criteria was conducted. The (R)Lip-EA-OH formulation was made in accordance with Example 3 and was administered at one of three doses: 0.8 mg/kg, 1.6 mg/kg and 2.4 mg/kg. The primary objective was to assess the safety of the (R)Lip-EA-OH formulation, ascertained by measuring the changes in CK-MB values up to 24 hours after the last balloon inflation. The secondary objective was to evaluate reduction of myocardial injury associated with stent PCI, as determined by serial measurements of cardiac biomarkers and as determined by continuous and serial ECG readings.
The primary outcome measure was the change in CK-MB at 24 hours after the last balloon inflation and it served as a surrogate marker for myocardial injury considered for safety and efficacy. CK-MB levels were measured on Day 1 at 0, 6, 12, 18, and 24 hours after the last balloon inflation.
The maximum serum concentration of CK-MB (Cmax) is calculated by subtracting the baseline value from the maximum concentration of CK-MB measured at any time point. CK-MB Cmax is correlated to the extent of myocardial injury associated with the PCI. The greatest Cmax value observed was in the placebo group.

[4] = 2.4 mg/kg dose group compared with other groups
[5] = 0.8, 1.6 or 2.4 mg/kg versus placebo, following PCI

C[C@H](NC(=O)[C@H](CCC(=O)O)NC(=O)CCCC[C@@H]1CCSS1)C(=O)O [(R)Lip-EA-OH, α-N—[(R)-1,2-diothiolane-3-pentanoyl]-L-glutamyl-L-alanine]
Polymer based upon HPLC area counts ([1]; after formulation by the initial procedure (solid neutralized, then diluted), FIG. 1): > 20%
Polymer by HPLC area count analysis ([1]; initially, before formulation): < 0.1%
Protection against myocardial damage associated with percutaneous coronary intervention [2]: statistically significant protection
CK-MB (ng/mL) - Change from Baseline, Mean ([3]; 0.8 mg/kg single IV dose of 10 mg/mL formulation, 6 hr after last balloon inflation): 0.12 ng/mL
CK-MB (ng/mL) - Change from Baseline, Mean ([3]; 0.8 mg/kg single IV dose of 10 mg/mL formulation, 12 hr after last balloon inflation): 1.63 ng/mL
CK-MB (ng/mL) - Change from Baseline, Mean ([3]; 0.8 mg/kg single IV dose of 10 mg/mL formulation, 18 hr after last balloon inflation): 1.87 ng/mL
CK-MB (ng/mL) - Change from Baseline, Mean ([3]; 0.8 mg/kg single IV dose of 10 mg/mL formulation, 24 hr after last balloon inflation): 1.80 ng/mL
Troponin-T (ng/mL) - Change from baseline (FAP population), Mean ([3]; 0.8 mg/kg): 0.041 ng/mL
Troponin-T (ng/mL) - Change from baseline (FAP population), Median ([3]; 0.8 mg/kg): 0.000 ng/mL
Troponin-T (ng/mL), Mean ([3]; 0.8 mg/kg): 0.042 ng/mL
Troponin-T (ng/mL), Median ([3]; 0.8 mg/kg): 0.000 ng/mL
CK-MB (ng/mL) - Change from Baseline, Mean ([3]; 1.6 mg/kg single IV dose of 10 mg/mL formulation, 6 hr after last balloon inflation): 0.76 ng/mL
CK-MB (ng/mL) - Change from Baseline, Mean ([3]; 1.6 mg/kg single IV dose of 10 mg/mL formulation, 12 hr after last balloon inflation): 1.95 ng/mL
CK-MB (ng/mL) - Change from Baseline, Mean ([3]; 1.6 mg/kg single IV dose of 10 mg/mL formulation, 18 hr after last balloon inflation): 2.55 ng/mL
CK-MB (ng/mL) - Change from Baseline, Mean ([3]; 1.6 mg/kg single IV dose of 10 mg/mL formulation, 24 hr after last balloon inflation): 2.54 ng/mL
Troponin-T (ng/mL) - Change from baseline (FAP population), Mean ([3]; 1.6 mg/kg): 0.068 ng/mL
Troponin-T (ng/mL) - Change from baseline (FAP population), Median ([3]; 1.6 mg/kg): 0.000 ng/mL
Troponin-T (ng/mL), Mean ([3]; 1.6 mg/kg): 0.066 ng/mL
Troponin-T (ng/mL), Median ([3]; 1.6 mg/kg): 0.000 ng/mL
CK-MB Cmax as an indicator of injury [3, 4]: least amount of injury
Efficacy markers of periprocedural injury (changes in Troponin-T, CK-MB AUC0-24, Cmax of CK-MB) [3, 4]: lowest
CK-MB (ng/mL) - Change from Baseline, Mean ([3]; 2.4 mg/kg single IV dose of 10 mg/mL formulation, 6 hr after last balloon inflation): -0.10 ng/mL
CK-MB (ng/mL) - Change from Baseline, Mean ([3]; 2.4 mg/kg single IV dose of 10 mg/mL formulation, 12 hr after last balloon inflation): 0.10 ng/mL
CK-MB (ng/mL) - Change from Baseline, Mean ([3]; 2.4 mg/kg single IV dose of 10 mg/mL formulation, 18 hr after last balloon inflation): 0.30 ng/mL
CK-MB (ng/mL) - Change from Baseline, Mean ([3]; 2.4 mg/kg single IV dose of 10 mg/mL formulation, 24 hr after last balloon inflation): 0.44 ng/mL
Troponin-T (ng/mL) - Change from baseline (FAP population), Mean ([3]; 2.4 mg/kg): 0.018 ng/mL
Troponin-T (ng/mL) - Change from baseline (FAP population), Median ([3]; 2.4 mg/kg): 0.000 ng/mL
Troponin-T (ng/mL), Mean ([3]; 2.4 mg/kg): 0.019 ng/mL
Troponin-T (ng/mL), Median ([3]; 2.4 mg/kg): 0.000 ng/mL
Maximum CK-MB change from baseline (FIG. 3) [3, 5]: less myocardial injury than patients in the placebo group
Troponin T change from baseline in the full analysis population (FIG. 4) [3, 5]: less myocardial injury than patients in the placebo group
Efficacy in reducing myocardial injury / cardioprotective action ([3]; patients undergoing stent PCI, 0.8, 1.6 or 2.4 mg/kg): demonstrated efficacy in reducing the myocardial injury
